From patent publication US20070202047A1, “Polyamine-substituted ligands for use as contrast agents” (priority 2006, published 2007)

What was measured:
[1] = test system: B16, MH3924A, Hela, MCF-7, A498 and mouse fibroblasts (3T3 NIH); assay: Intracellular uptake, cell panel of FIG. 7A (ICP-MS); format: cell-based; conditions: 1-h incubation, 10-100 μM, samples of 3×10^6 cells (FIG. 7A)
Protocol: (§1) Cell Uptake Studies. A493 (human kidney), B16 melanoma cells (mouse), HeLa (human cervix), MCF-7 (human breats), MH3924A (Morris hepatoma) cells (rat) and 3T3 NIH (mouse fibroblasts) were obtained from the DKFZ tumor cell collection. 3×10^6 cells of each cell type were grown for 24 hours in culture flasks. Afterwards they were incubated for 1 hour in 10 mL culture media containing 0, 10, 50 and 100 μM of Gd-2.2. Gd-3.2 or Gd-4.2. Afterwards the medium was removed, the cells were trypsinated, washed twice, resuspended in culture medium and counted. The gadolinium uptake was determined in triplicate. […] cells were incubated with 0, 1, 2.5, 5 and 10 μM of the Gd-1.2. and Gd-5.2. for 24 h.
(§2) ICP-MS: Equal cell counts were taken and digested with HNO3 under microwave heating (Mars5, CEM). The samples were diluted with water containing Rh-103 as an internal standard. Gd-157 measurements were performed with a high resolution ICP-mass spectrometer (ELEMENT 2, Finnigan MAT). The gadolinium concentrations were determined from standard curves created prior to sample analyses.

[2] = test system: subcutaneous MH3924A tumor; assay: MRI of ACI rats bearing a subcutaneous MH3924A tumor; format: in vivo, rat; conditions: 1 h post Gd, 0.1 mmol/kg i.v., 2.35 T
Protocol: Animal models. For in vivo tumor studies 2×10^6 MH3924A tumor cells were injected subcutaneously into the right thigh of male ACI rats (Charles River, Sulzfeld, Germany) weighing 220 to 260 g. All animal experiments were performed in compliance with the German Animal Protection Laws (Permission 35-9185.81/G-7-03, Reg.-Praesidium, Karlsruhe, Germany).
MRI. At 25 days after inoculation, when tumors had reached a diameter of ca. 10-15 mm, the MR imaging experiments were initiated. ACI rats were anesthetized by intravenous injection of ketamin (Ketanest®, 0.1 mg/g body wt.; Parke-Davis, Berlin, Germany). Then a dose of 0.1 mmol/kg Magnevist® or Gadovist® (Schering, Berlin, Germany) or one of the synthesized agents Gd-3.1., Gd-5.1. or Gd-6.1. was injected intravenously into a lateral tail vein. For one experiment a higher dose (0.36 mmol/kg) of Magnevist® was used. Individual rats were examined by MRI at 1 h and 24 h post Gd, in the case of Magnevist® also at ca. 15 min post Gd. Proton imaging studies were performed at 2.35 T (100.3 MHz) with a Biospec 24/40 instrument (Bruker BioSpin MRI, Ettlingen, Germany). […] Two transaxial multislice imaging protocols were applied with a field of view of 70×70 mm, 128 time-domain data points, 96 phase-encoding steps, and 16 slices of 2 mm thickness. A multi-spin-echo sequence was used for proton-density and T2-weighted images (repetition time TR=2 s, 12 echoes with echo times TE of 8, 16, 24, . . . 96 ms, number of averages=1), and a spoiled gradient-echo sequence was used for T1-weighted imaging (TR=212 ms, TE=5 ms, flip angle=60°, number of averages=3). The data were Fourier transformed to give a 128×128 image matrix with 0.55 mm pixel resolution. Analogous T1-weighted images with coronal slices were acquired with a field of view of 80×80 mm and 3-mm slice thickness.
Imaging viewing, ROI analysis and export of TIFF files was performed with the freeware MRIcro from Chris Rorden (http://people.cas.sc.edu/rorden/mricro.html).

B16 melanoma cells = assay: Intracellular uptake of gadolinium complexes (ICP-MS); format: cell-based, mouse; conditions: B16 melanoma cells, 1 h incubation, 100 μM
Protocol: (§3) Cell culture. B16 melanoma cells (mouse) and MH3924A Morris hepatoma cells (rat) were obtained from the German Cancer Research Center (DKFZ) tumor bank and grown at 37° C. as stock cultures in RPMI 1640 supplemented with 10% fetal calf serum and 1% glutamine as standard medium under a 5% CO2 atmosphere (all components: Pan Biotech GmbH, Aidenbach, Germany). For contrast agent uptake studies 10^6 cells were inoculated into 25 cm^2 culture flasks (BD Biosciences, Bedford, USA) and grown for 24 h in 10 mL of the standard culture medium. Cells were then incubated for an additional 24 h (1 h for temperature dependence studies) with fresh medium containing 0, 1, 2.5, 5 or 10 μM of the selected gadolinium complex (three replicate flasks for each incubation). Afterwards the medium was removed, cells were trypsinated, washed twice, resuspended in culture medium and counted (typical yields: 3.5-6 million cells). For comparison 2.5×10^5 human melanocytes (Promo Cell, Heidelberg, Germany) were incubated for 24 h with melanocyte growth medium (Promo Cell, Heidelberg, Germany) containing 0, 1, 2.5, 5 or 10 μM of the selected gadolinium complex (two replicate flasks for each incubation). The work up procedure was as described above typically yielding 2.5×10^5 cells. Cultured human hepatocytes (Cytonet GmbH, Weinheim, Germany) embedded in a collagen matrix in a 12 well microtiter plate, with 6×10^5 viable cells per well were incubated for 24 h in hepatocyte growth medium (Cytonet GmbH, Weinheim, Germany) containing the same concentration series of selected gadolinium complexes. Afterwards the medium was removed, cells were separated using collagenase (Roche Diagnostics, Mannheim, Germany). After digestion the cells were washed twice with PBS, resuspended in culture medium and counted (typical yields: 6×10^5 cells per tube). The intracellular gadolinium content was determined by ICP-MS as described below.
(§4) ICP-MS. Samples containing the above mentioned number of harvested cells were digested with 50% concentrated HNO3 (Superselect; Merck, Darmstadt, Germany) under microwave heating with a Mars 5 apparatus (CEM GmbH, Kamp-Lintfort, Germany). To each sample 100 μL of an aqueous solution of rhodium chloride (1 μg/mL) were added so that Rh-103 could be used as an internal quantification standard. Gd-160 measurements were performed with the ICP-MS instrument mentioned above. The gadolinium concentrations were determined using standard curves created prior to cell analyses. For each uptake incubation condition triplicate cell samples were analyzed, and Gd content for each sample was recorded as the mean of two MS determinations.
(§5) Intracellular Uptake of Gadolinium Complexes. B16 melanoma and MH3924A hepatoma cells as well as human melanocytes and hepatocytes were incubated for 24 h in the presence of the gadolinium complexes shown in FIG. 1, using concentrations in the range of 1-10 μM. Incubations with the unsubstituted [Gd(DTPA)(H2O)]^2−complex (Magnevist®) served as controls. Following cell harvest and hydrolysis, inductively coupled plasma mass spectrometry (ICP-MS) with direct detection of gadolinium was used to quantitate complex uptake (triplicate cultures for each incubation).
as §1, with “h. […]” for “h.”

[3] = test system: MH3924A Morris hepatoma cells; assay: as above; format: cell-based, rat; conditions: MH3924A
Protocol: as §3, §4, §5
as §1, with “h. […]” for “h.”

[4] = test system: A498 (human kidney carcinoma); assay: as above; format: cell-based; conditions: A498, 1 h incubation, 100 μM
Protocol: as §1, §2

[5] = test system: HeLa (human cervix carcinoma cells); assay: as above; format: cell-based; conditions: 1 h incubation, 100 μM
Protocol: as §1, §2

[6] = test system: MCF-7 (human breast cancer); assay: as above; format: cell-based; conditions: MCF-7, 1 h incubation, 100 μM
Protocol: as §1, §2

human serum albumin = biological target: T1, human serum albumin (Homo sapiens, UniProt P02768); assay: Serum albumin binding (ultrafiltration, ICP-MS); format: in vitro ADME; conditions: 20 μM complex, 40 g/L HSA, 37° C., ultrafiltrate
T1 construct: purchased Behring, Bern, Switzerland
T1 sequence (P02768 25-609): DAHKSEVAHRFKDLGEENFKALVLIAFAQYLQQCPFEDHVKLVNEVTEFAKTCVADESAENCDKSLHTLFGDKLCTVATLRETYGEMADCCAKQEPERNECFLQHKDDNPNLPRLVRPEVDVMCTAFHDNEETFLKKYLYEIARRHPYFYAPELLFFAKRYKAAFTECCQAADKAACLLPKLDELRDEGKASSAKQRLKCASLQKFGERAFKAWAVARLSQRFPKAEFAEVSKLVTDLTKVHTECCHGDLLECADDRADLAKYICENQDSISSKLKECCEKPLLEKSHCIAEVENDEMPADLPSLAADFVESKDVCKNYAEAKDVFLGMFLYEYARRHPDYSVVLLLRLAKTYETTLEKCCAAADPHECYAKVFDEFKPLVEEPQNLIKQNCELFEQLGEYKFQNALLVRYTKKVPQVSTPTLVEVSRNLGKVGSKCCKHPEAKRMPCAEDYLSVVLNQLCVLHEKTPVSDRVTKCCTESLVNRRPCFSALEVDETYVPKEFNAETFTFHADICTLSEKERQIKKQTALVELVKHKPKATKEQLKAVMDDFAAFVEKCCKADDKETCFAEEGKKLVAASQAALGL
Protocol: Serum albumin binding. Solutions containing 20 μM Gd-3.1., Gd-5.1. or Gd-6.1. and 40 g/L human serum albumin (Behring, Bern, Switzerland) were incubated at 37° C. for 30 or 90 min. The solutions were subjected to ultrafiltration (filter cutoff 20 kD; Sartorius, Göttingen, Germany), and the amount of unbound complex was determined in the ultrafiltrate with ICP-MS (n=2).
HSA Binding: 20 μM solutions of the complexes were incubated at 37° C. for 30 and 90 minutes in a solution of 40 g HSA/L (Behring, Bern; Switzerland). The amount of unbound complex was determined in ultrafiltrates with ICP-MS.

Complex stability = format: physicochemical; conditions: method of Sherry et al.
Protocol: Complex stability. The stability constants were determined using a method of Sherry et al. (39).

[7] = Biodistribution in BALB/c nu/nu mice carrying B16 melanoma; format: in vivo, mouse; conditions: 1 h post i.v. injection, perfused organs, B16 melanoma-bearing mice
Protocol: Animal model. For in vivo tumor studies 3×10^6 B16 tumor cells were injected subcutaneously into the right thigh of male BALB/c nu/nu mice (Charles River, Sulzfeld, Germany) weighing 18 to 21 g. All animal experiments were performed in compliance with the German Animal Protection Laws (Permission 35-9185.81/G-7-03, Reg.-Praesidium, Karlsruhe, Germany).
Biodistribution data. At 10 days after tumor inoculation, when tumors had reached a diameter of ca. 7-8 mm, the biodistribution experiments were initiated. Each animal (18-21 g) was given an intravenous tail-vein injection of 975 μmol/kg Gadovist® (Schering, Berlin, Germany) or 1 μmol/kg of Gd-2.2. 1 h post-injection (p.i.), the animals were weighed, sacrificed by cervical dislocation, perfused and dissected. Organs or tissues were blotted dry and weighed. Samples containing the tumor or organs were digested with concentrated HNO3 (Superselect; Merck, Darmstadt, Germany) and H2O2 under microwave heating with a Mars 5 apparatus (CEM GmbH, Kamp-Lintfort, Germany). To each sample 100 μL of an aqueous solution of rhodium chloride (1 μg/mL) were added so that Rh-103 could be used as an internal quantification standard. […] The gadolinium concentrations were determined using standard curves created prior to tissue analyses. The results are expressed as nmol Gd/g tissue scaled on the dose of 100 μmol of the corresponding Gd complex.

SMILES	intracellular uptake (below ICP-MS detection limit) [1]	contrast ratio tumor vs. muscle tissue, T1 weighting [2]	intracellular uptake of gadolinium complex (B16 melanoma cells)	intracellular gadolinium content after 1 h incubation plus additional 24 h in complex-free medium [3]	intracellular uptake of gadolinium complex ([3]; 1 h incubation with 100 μM complex)	intracellular uptake of gadolinium complex [4]	intracellular uptake of gadolinium complex [5]	intracellular uptake of gadolinium complex [6]	complex found to be free (unbound) (human serum albumin)	complex stability constant (Complex stability)	preferential tissue binding (biodistribution) [7]
O=C([O-])CN1CCN(CC(=O)[O-])CCN([C@H](CO)[C@H](O)CO)CCN(CC(=O)[O-])CC1.[Gd+3] (racemic) [Gadovist, gadobutrol, reference compound]	< 0.01 fmol/cell	≤ 1.06									
NCCN(CCN)C(=O)CN1CCN(CC(=O)[O-])CCN(CC(=O)[O-])CCN(CC(=O)[O-])CC1.[Gd+3] [Gd-2.2]			0.057 fmol/cell	the same as for the 1 h incubation	0.222 fmol/cell	0.023 fmol/cell	0.0078 fmol/cell	0.0086 fmol/cell	92±5%	about 3.45×10^21	binds preferentially to kidneys and skin tissue, but shows high tumor uptake as well
